Measured values: patent CN113813388A, “一种眼用纳米胶束及其制备方法和应用” (Zhejiang University ZJU, priority 2021, dated 2021)

What was measured:
[1] = after topical ocular administration; cited from earlier work
[2] = H2O2 (ROS) scavenging assay with hydrogen peroxide detection kit (S0038, Beyotime); assay type: biochemical; details: within 15 min; Tempo concentration 100 μg/mL-1; 500 μM H2O2 in 0.01 M PBS pH 7.4

In the case of CC1(C)CCCC(C)(C)N1[O] [Tempo], the “rapidly cleared, time after application” value [1] is given as 15 to 30 s and the “eliminated H2O2” value [2] is given as 78.9%.
